BindingDB's records for doi:10.1016/s0960-894x(00)00360-7 (Smithkline Beecham Pharmaceuticals, 2000)

Biological target: Arginine--tRNA ligase (Staphylococcus aureus)
Assay: Inhibitory activity against cognate Staphylococcus aureus Arginyl-tRNA synthetase

`N=C(N)NCCC[C@H](N)C(=O)NS(=O)(=O)OC[C@H]1O[C@@H](n2cnc3c(N)ncnc32)[C@H](O)[C@@H]1O` [Aminoalkyl adenylate and aminoacyl sulfamate analogue] was tested, and the IC50 was 4.5 nM.
